In ChEMBL document CHEMBL1201862, “PubChem BioAssay data set” (2004):
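Test compounds were applied to cells in 96-well plates for 48 hours at 5 doses. Here, GI50 denotes the concentration required for 50% inhibition of growth.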 Active and inactive are the calls of the source. Cut-off read from the data, not from the text of the source: active = GI50 up to about 1.1 µM and inactive = higher.

What was measured:
Assay in all cases: inhibition of tumour cell growth, NCI panel, 48 h
OVCAR-8 = tested on: OVCAR-8
SNB-78 = tested on: SNB-78
M14 = tested on: M14
UACC-62 = tested on: UACC-62
SNB-75 = tested on: SNB-75
SK-OV-3 = tested on: SK-OV-3
A498 = tested on: A498
CCRF-CEM = tested on: CCRF-CEM
OVCAR-3 = tested on: OVCAR-3
Malme-3M = tested on: Malme-3M
786-0 = tested on: 786-0
SW-620 = tested on: SW-620
SF-268 = tested on: SF-268
SK-MEL-5 = tested on: SK-MEL-5
OVCAR-4 = tested on: OVCAR-4
NCI-H522 = tested on: NCI-H522
UACC-257 = tested on: UACC-257
COLO 205 = tested on: COLO 205
SNB-19 = tested on: SNB-19
HL-60 = tested on: HL-60
HCT-116 = tested on: HCT-116
UO-31 = tested on: UO-31
U-251 = tested on: U-251
CAKI-1 = tested on: CAKI-1
DLD-1 = tested on: DLD-1
LOX IMVI = tested on: LOX IMVI
SF-295 = tested on: SF-295
XF498 = tested on: XF498
A549 = tested on: A549
OVCAR-5 = tested on: OVCAR-5
K562 = tested on: K562
NCI-H226 = tested on: NCI-H226
SF-539 = tested on: SF-539
M19-MEL = tested on: M19-MEL
SK-MEL-28 = tested on: SK-MEL-28
DMS-114 = tested on: DMS-114
LXFL 529 = tested on: LXFL 529
IGROV-1 = tested on: IGROV-1
HOP-62 = tested on: HOP-62
MOLT-4 = tested on: MOLT-4
RPMI-8226 = tested on: RPMI-8226
HCC 2998 = tested on: HCC 2998
TK-10 = tested on: TK-10
SK-MEL-2 = tested on: SK-MEL-2
KM-20L2 = tested on: KM-20L2
HOP-92 = tested on: HOP-92
EKVX = tested on: EKVX
HT-29 = tested on: HT-29
NCI-H23 = tested on: NCI-H23
SN12C = tested on: SN12C
DMS-273 = tested on: DMS-273
NCI-H460 = tested on: NCI-H460
Hs-578T = tested on: Hs-578T
KM12 = tested on: KM12
SR = tested on: SR
HCT-15 = tested on: HCT-15
MCF7 = tested on: MCF7
PC-3 = tested on: PC-3
MDA-N = tested on: MDA-N
T47D = tested on: T47D
RXF 393 = tested on: RXF 393
MDA-MB-231 = tested on: MDA-MB-231
NCI/ADR-RES = tested on: NCI/ADR-RES
ACHN = tested on: ACHN
MDA-MB-435 = tested on: MDA-MB-435
DU-145 = tested on: DU-145

In the case of `CSC(C1c2ccccc2N(c2ccc(C)cc2)c2[nH]c(=O)n(C)c(=O)c21)S(=O)(=O)c1ccc(C)cc1` (centres undefined), the GI50 (OVCAR-8) was > 100 µM (inactive), the GI50 (SNB-78) was > 100 µM (inactive) and the GI50 (M14) was > 100 µM (inactive). For the same compound, the GI50 (UACC-62) was > 100 µM (inactive), the GI50 (SNB-75) was > 100 µM (inactive) and the GI50 (SK-OV-3) was > 100 µM (inactive). For the same compound, the GI50 (A498) was > 100 µM (inactive), the GI50 (CCRF-CEM) was 71.6 µM (inactive) and the GI50 (OVCAR-3) was > 100 µM (inactive). The GI50 (Malme-3M) was > 100 µM (inactive), the GI50 (786-0) was > 100 µM (inactive) and the GI50 (SW-620) was > 100 µM (inactive). The GI50 (SF-268) was > 100 µM (inactive), the GI50 (SK-MEL-5) was > 100 µM (inactive) and the GI50 (OVCAR-4) was 97.7 µM (inactive). For the same compound, the GI50 (NCI-H522) was 63.8 µM (inactive), the GI50 (UACC-257) was > 100 µM (inactive) and the GI50 (COLO 205) was > 100 µM (inactive). For the same compound, the GI50 (SNB-19) was > 100 µM (inactive), the GI50 (HL-60) was 43.5 µM (inactive) and the GI50 (HCT-116) was > 100 µM (inactive). For the same compound, the GI50 (UO-31) was > 100 µM (inactive), the GI50 (U-251) was > 100 µM (inactive) and the GI50 (CAKI-1) was > 100 µM (inactive). The GI50 (DLD-1) was > 100 µM (inactive), the GI50 (LOX IMVI) was > 100 µM (inactive) and the GI50 (SF-295) was > 100 µM (inactive). The GI50 (XF498) was > 100 µM (inactive), the GI50 (A549) was > 100 µM (inactive) and the GI50 (OVCAR-5) was > 100 µM (inactive). For the same compound, the GI50 (K562) was > 100 µM (inactive), the GI50 (NCI-H226) was > 100 µM (inactive) and the GI50 (SF-539) was > 100 µM (inactive). For the same compound, the GI50 (M19-MEL) was > 100 µM (inactive), the GI50 (SK-MEL-28) was > 100 µM (inactive) and the GI50 (DMS-114) was > 100 µM (inactive). The GI50 (LXFL 529) was > 100 µM (inactive), the GI50 (IGROV-1) was > 100 µM (inactive) and the GI50 (HOP-62) was > 100 µM (inactive). The GI50 (MOLT-4) was > 100 µM (inactive), the GI50 (RPMI-8226) was 97.1 µM (inactive) and the GI50 (HCC 2998) was > 100 µM (inactive). The GI50 (TK-10) was > 100 µM (inactive), the GI50 (SK-MEL-2) was > 100 µM (inactive) and the GI50 (KM-20L2) was > 100 µM (inactive). For the same compound, the GI50 (HOP-92) was > 100 µM (inactive), the GI50 (EKVX) was > 100 µM (inactive) and the GI50 (HT-29) was > 100 µM (inactive). For the same compound, the GI50 (NCI-H23) was > 100 µM (inactive), the GI50 (SN12C) was > 100 µM (inactive) and the GI50 (DMS-273) was > 100 µM (inactive). For the same compound, the GI50 (NCI-H460) was > 100 µM (inactive).

For `C=C(C)C(O)CCC1(C)C=Cc2c(c(C)cc3c2[nH]c2ccccc23)O1` (centres undefined), the GI50 (OVCAR-8) was 9.08 µM (inactive), the GI50 (Hs-578T) was 3.17 µM (inactive) and the GI50 (KM12) was 5.85 µM (inactive). For the same compound, the GI50 (SNB-78) was 8.77 µM (inactive), the GI50 (M14) was 5.05 µM (inactive) and the GI50 (UACC-62) was 4.8 µM (inactive). For the same compound, the GI50 (SNB-75) was 3.3 µM (inactive), the GI50 (SK-OV-3) was 23.3 µM (inactive) and the GI50 (A498) was 13.6 µM (inactive). For the same compound, the GI50 (CCRF-CEM) was 7.74 µM (inactive), the GI50 (OVCAR-3) was 7.52 µM (inactive) and the GI50 (Malme-3M) was 11.3 µM (inactive). The GI50 (786-0) was 4.91 µM (inactive), the GI50 (SR) was 8.47 µM (inactive) and the GI50 (SW-620) was 4.48 µM (inactive). For the same compound, the GI50 (SF-268) was 9.93 µM (inactive), the GI50 (SK-MEL-5) was 7.62 µM (inactive) and the GI50 (OVCAR-4) was 16.5 µM (inactive). The GI50 (NCI-H522) was 4.91 µM (inactive), the GI50 (UACC-257) was 8.17 µM (inactive) and the GI50 (COLO 205) was 4.65 µM (inactive). For the same compound, the GI50 (SNB-19) was 15.2 µM (inactive), the GI50 (HL-60) was 6.68 µM (inactive) and the GI50 (HCT-116) was 13.2 µM (inactive). The GI50 (HCT-15) was 4.26 µM, the GI50 (UO-31) was 6.87 µM (inactive) and the GI50 (U-251) was 5.01 µM (inactive). The GI50 (DLD-1) was 7.28 µM (inactive), the GI50 (LOX IMVI) was 4.12 µM (inactive) and the GI50 (SF-295) was 4.34 µM (inactive). The GI50 (XF498) was 6.67 µM (inactive), the GI50 (A549) was 7.4 µM (inactive) and the GI50 (OVCAR-5) was 4.2 µM (inactive). For the same compound, the GI50 (K562) was 6.25 µM (inactive), the GI50 (MCF7) was 12.3 µM (inactive) and the GI50 (PC-3) was 6.55 µM (inactive). The GI50 (NCI-H226) was 7.01 µM (inactive), the GI50 (SF-539) was 4.27 µM (inactive) and the GI50 (M19-MEL) was 13.2 µM (inactive). For the same compound, the GI50 (MDA-N) was 3.58 µM (inactive), the GI50 (T47D) was 7.83 µM (inactive) and the GI50 (RXF 393) was 0.245 µM (active). For the same compound, the GI50 (MDA-MB-231) was 3.49 µM (inactive), the GI50 (NCI/ADR-RES) was 8.81 µM (inactive) and the GI50 (SK-MEL-28) was 16.7 µM (inactive). For the same compound, the GI50 (DMS-114) was 11.6 µM (inactive), the GI50 (LXFL 529) was 8.05 µM (inactive) and the GI50 (IGROV-1) was 17.1 µM (inactive). For the same compound, the GI50 (ACHN) was 4.86 µM (inactive), the GI50 (HOP-62) was 4.75 µM (inactive) and the GI50 (MOLT-4) was 5.75 µM (inactive). For the same compound, the GI50 (RPMI-8226) was 9.77 µM (inactive), the GI50 (HCC 2998) was 5.65 µM (inactive) and the GI50 (MDA-MB-435) was 8.41 µM (inactive). The GI50 (TK-10) was > 25 µM (inactive), the GI50 (KM-20L2) was 3.99 µM (inactive) and the GI50 (DU-145) was 12.6 µM (inactive). The GI50 (HOP-92) was 7.01 µM (inactive), the GI50 (HT-29) was 4.72 µM (inactive) and the GI50 (NCI-H23) was 10.7 µM (inactive). For the same compound, the GI50 (SN12C) was 12.8 µM (inactive) and the GI50 (NCI-H460) was 5.42 µM (inactive).
